# Source: the supplement of paper PMC10307832
# Compound: CCc1cnn2c(NCc3ccc[n+]([O-])c3)cc(N3CCCC[C@H]3CCO)nc12 [Dinaciclib] + NC(=O)Nc1cc(-c2cccc(F)c2)sc1C(=O)N[C@H]1CCCNC1 [AZD7762] (partner 0.2 µM)
# Assay: relative viability (nuclei count vs DMSO), 5 days (fraction); higher = more cells survive
# Procedure, shortened: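 Lung cancer cell lines in 1536-well plates got either a single drug or a fixed anchor-drug dose together with five library-drug doses (not always all listed) in √10 steps, by pin tool, on the day after seeding. Nuclei were counted after 5 days, and relative viability is the treated-to-vehicle ratio of nuclei counts. Values are medians of duplicate plates.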
Cell Line,relative viability (first compound 0.009487 µM),relative viability (first compound 0.03 µM),relative viability (first compound 0.09487 µM),relative viability (first compound 0.3 µM)
201T,0.79,0.844,0.252,0.228
A-427,0.75,0.161,0.117,0.102
ABC-1,0.87,0.642,0.189,0.178
BEN,0.894,0.566,0.217,0.287
CAL-12T,0.565,0.187,0.14,0.183
ChaGo-K-1,0.904,0.389,0.131,0.117
EKVX,0.756,0.436,0.127,0.101
EMC-BAC-2,0.935,0.657,0.22,0.237
EPLC-272H,0.444,0.0986,0.0404,0.0369
H3255,1.04,0.62,0.209,0.208
HARA,0.349,0.116,0.127,0.123
HCC-15,1.18,0.88,0.113,0.0634
HCC-44,0.999,1.05,0.351,0.327
HCC-78,0.941,0.637,0.226,0.209
HCC-366,0.406,0.0244,0.0268,0.0232
HCC-827,0.243,0.162,0.105,0.143
HOP-62,0.706,0.225,0.0545,0.068
LC-2-ad,0.87,0.118,0.11,0.128
LCLC-97TM1,0.385,0.0625,0.0497,0.0774
LCLC-103H,0.881,0.351,0.279,0.197

Cell Line,relative viability (first compound 0.009487 µM),relative viability (first compound 0.03 µM),relative viability (first compound 0.09487 µM),relative viability (first compound 0.3 µM)
LK-2,0.448,0.116,0.0518,0.0532
LOU-NH91,0.7,0.296,0.252,0.272
LU99A,0.322,0.11,0.106,0.115
LXF-289,1.18,0.453,0.0752,0.0836
NCI-H23,0.246,0.125,0.107,0.0921
NCI-H322M,0.613,0.409,0.42,0.394
NCI-H358,0.548,0.16,0.151,0.188
NCI-H441,1.17,0.758,0.141,0.16
NCI-H460,0.795,0.0353,0.0383,0.0328
NCI-H522,0.899,0.991,0.359,0.211
NCI-H596,1.09,0.479,0.262,0.24
NCI-H647,0.274,0.0458,0.0377,0.0491
NCI-H650,1.08,0.153,0.148,0.173
NCI-H727,0.716,0.413,0.356,0.34
NCI-H838,0.993,0.601,0.622,0.553
NCI-H1355,1.02,0.869,0.267,0.127
NCI-H1395,0.324,0.31,0.276,0.29
NCI-H1437,1.12,0.16,0.182,0.163
NCI-H1651,0.637,0.65,0.205,0.0865
NCI-H1666,1.01,0.691,0.32,0.321

Cell Line,relative viability (first compound 0.009487 µM),relative viability (first compound 0.03 µM),relative viability (first compound 0.09487 µM),relative viability (first compound 0.3 µM)
NCI-H1703,0.132,0.125,0.0862,0.087
NCI-H1734,0.505,0.108,0.108,0.089
NCI-H1755,0.49,0.306,0.211,0.219
NCI-H1792,0.585,0.0463,0.032,0.0288
NCI-H1793,0.83,0.144,0.156,0.121
NCI-H1915,0.763,0.354,0.115,0.0982
NCI-H1944,0.745,0.0989,0.128,0.135
NCI-H1975,0.957,0.421,0.22,0.215
NCI-H1993,0.668,0.364,0.385,0.396
NCI-H2085,1.14,0.391,0.211,0.221
NCI-H2087,1.44,0.108,0.127,0.123
NCI-H2126,1.13,0.899,0.29,0.198
NCI-H2170,0.705,0.122,0.108,0.128
NCI-H2347,0.78,0.226,0.2,0.185
NCI-H2405,0.539,0.202,0.193,0.196
NCI-H3122,1.07,0.107,0.0953,0.0953
PC-3 [JPC-3],0.904,0.476,0.308,0.279
PC-14,0.389,0.0715,0.0519,0.0512
RERF-LC-KJ,1.04,0.498,0.114,0.155
SW 900,0.705,0.405,0.179,0.148
